One data set has as its target Cytochrome P450 2C9 (Homo sapiens, UniProt P11712).
The target in a further data set is Cytochrome P450 2C19 (Homo sapiens, UniProt P33261). The experiment in a line: Cytochrome panel assay with activity outcomes. Panel member name: p450-cyp2c19 Compounds with AC50 equal or less than 10 uM are considered active. It counts as functional.
A further data set addresses Cytochrome P450 3A4 (Homo sapiens, UniProt P08684).
The nature of data set [1]: inhibitors of intracellular T. cruzi replication, confirmation, NIH3T3 host cells, beta-gal luminescence (AID 2044).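 Further: intracellular parasites grown in NIH/3T3 mouse fibroblasts as host cells; luminescent beta-galactosidase reporter signal from transgenic T. cruzi replicating inside host cells; inhibitors lower the luminescence signal.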 It is filed as functional, cell-based.
Data set [2] in a line: cytotoxicity toward NIH3T3 fibroblasts, dose response, counter-screen, cell-based, ATP luminescence, mouse fibroblasts (AID 2010).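 Further: cells exposed to compound for about 90 hours before reading.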 It is filed as functional. For orientation: The purpose of a counterscreen is to sort out artefacts and off-target activity.
The nature of data set [3]: Luminescence Cell-Based Dose Retest to Confirm Inhibitors of Cancer Stem Cells. [Related pubchem assays (depositor defined):AID2717, AID2721]. It counts as functional. Particulars: Homo sapiens.
Data set [4] has as its target T1, Rac GTPase-activating protein 1 (Homo sapiens, UniProt Q9H0H5).
T1 sequence (Q9H0H5 whole entry): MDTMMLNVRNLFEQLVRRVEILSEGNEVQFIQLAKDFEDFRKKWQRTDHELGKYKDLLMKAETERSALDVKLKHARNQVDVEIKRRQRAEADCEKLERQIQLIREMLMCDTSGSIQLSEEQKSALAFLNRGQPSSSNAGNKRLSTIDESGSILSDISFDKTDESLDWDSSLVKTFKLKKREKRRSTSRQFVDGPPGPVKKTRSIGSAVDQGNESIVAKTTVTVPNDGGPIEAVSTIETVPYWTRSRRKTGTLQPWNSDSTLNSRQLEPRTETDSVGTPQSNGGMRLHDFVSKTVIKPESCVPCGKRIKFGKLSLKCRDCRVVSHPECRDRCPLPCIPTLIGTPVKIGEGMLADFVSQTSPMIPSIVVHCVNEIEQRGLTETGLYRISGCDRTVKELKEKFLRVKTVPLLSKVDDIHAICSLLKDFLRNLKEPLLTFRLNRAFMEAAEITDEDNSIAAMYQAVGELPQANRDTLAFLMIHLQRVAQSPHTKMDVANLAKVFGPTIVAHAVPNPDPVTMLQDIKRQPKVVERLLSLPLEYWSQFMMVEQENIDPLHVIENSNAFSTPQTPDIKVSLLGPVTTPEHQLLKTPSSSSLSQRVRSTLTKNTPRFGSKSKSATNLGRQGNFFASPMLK
Nature of the data set: MgcRacGAP GTPase-activating activity inhibitors, confirmation, biochemical, ADP Hunter fluorescence, primary and confirmatory (AID 624330). It is filed as functional.

Data set [5] concerns Streptococcus sp. 'group A'. The experiment in a line: growth inhibition of control SK(-) GAS strain, dose response, counter-screen for streptokinase expression inhibitor project, luminescence, kanamycin, BacTiterGlo, confirmation (AID 1900). It is filed as functional, organism-based.
The subject of another data set is Streptococcus. Nature of the data set: Group A Streptococcus viability loss, dose response, counter-screen for streptokinase expression inhibitor project, luminescence, BacTiterGlo (AID 1915).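 Further: potency for reduction of bacterial viability or growth.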 It counts as functional, organism-based. The note with it: read-out: EC50.

The structures appear in SMILES notation. The source made the active and inactive calls.

Sequence of Cytochrome P450 2C9 (P11712 whole entry): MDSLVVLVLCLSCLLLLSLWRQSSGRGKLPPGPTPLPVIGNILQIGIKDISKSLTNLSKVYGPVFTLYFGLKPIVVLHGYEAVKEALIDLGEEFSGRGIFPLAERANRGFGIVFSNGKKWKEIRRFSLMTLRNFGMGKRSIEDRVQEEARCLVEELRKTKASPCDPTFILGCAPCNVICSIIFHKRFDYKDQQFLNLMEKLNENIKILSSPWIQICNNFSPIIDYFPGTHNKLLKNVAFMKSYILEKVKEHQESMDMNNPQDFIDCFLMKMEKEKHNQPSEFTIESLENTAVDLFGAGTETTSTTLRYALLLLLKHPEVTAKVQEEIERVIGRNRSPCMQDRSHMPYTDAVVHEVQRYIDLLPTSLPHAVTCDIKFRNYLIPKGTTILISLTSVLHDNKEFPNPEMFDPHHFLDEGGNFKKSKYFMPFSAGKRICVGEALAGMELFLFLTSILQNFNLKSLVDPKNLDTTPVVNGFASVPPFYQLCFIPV
Sequence of Cytochrome P450 2C19 (P33261 whole entry): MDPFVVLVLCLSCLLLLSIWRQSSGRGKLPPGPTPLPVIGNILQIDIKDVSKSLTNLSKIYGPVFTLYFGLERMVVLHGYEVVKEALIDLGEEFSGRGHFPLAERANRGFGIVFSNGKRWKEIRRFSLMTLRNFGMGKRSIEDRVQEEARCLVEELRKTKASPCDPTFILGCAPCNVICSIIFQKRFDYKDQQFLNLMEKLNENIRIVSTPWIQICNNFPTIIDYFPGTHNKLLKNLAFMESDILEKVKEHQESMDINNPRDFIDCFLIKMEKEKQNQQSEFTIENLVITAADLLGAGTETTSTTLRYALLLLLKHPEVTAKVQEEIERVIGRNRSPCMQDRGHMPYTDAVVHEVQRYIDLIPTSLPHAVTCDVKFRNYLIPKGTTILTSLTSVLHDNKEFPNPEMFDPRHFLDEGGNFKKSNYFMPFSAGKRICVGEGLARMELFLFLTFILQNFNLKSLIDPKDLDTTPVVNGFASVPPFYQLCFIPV
Sequence of Cytochrome P450 3A4 (P08684 whole entry): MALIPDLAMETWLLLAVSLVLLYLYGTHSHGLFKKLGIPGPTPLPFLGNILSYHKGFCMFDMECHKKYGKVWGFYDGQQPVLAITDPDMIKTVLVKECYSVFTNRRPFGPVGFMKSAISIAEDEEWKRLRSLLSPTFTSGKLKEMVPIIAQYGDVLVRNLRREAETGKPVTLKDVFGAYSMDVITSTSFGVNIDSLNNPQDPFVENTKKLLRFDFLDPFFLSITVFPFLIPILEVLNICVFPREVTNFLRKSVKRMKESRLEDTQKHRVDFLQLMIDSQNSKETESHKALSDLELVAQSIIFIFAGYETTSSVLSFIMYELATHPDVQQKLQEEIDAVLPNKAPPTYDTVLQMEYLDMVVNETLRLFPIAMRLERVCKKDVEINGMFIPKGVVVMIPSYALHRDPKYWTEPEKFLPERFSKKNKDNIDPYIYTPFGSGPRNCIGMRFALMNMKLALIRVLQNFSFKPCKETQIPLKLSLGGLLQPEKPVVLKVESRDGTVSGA

The AC50 is the concentration at which the activity in the assay is half-maximal. Turning to `COc1ccc(-n2nc3cc(C)c(NC(=S)NC(=O)c4ccccc4C)cc3n2)cc1`, the AC50 at Cytochrome P450 2C9 was 6.31 µM (inconclusive).
Turning to `CC(=O)Nc1cc(C(F)(F)F)ccc1Oc1cccc(Br)c1`, the concentration at half-maximal activity (AC50) was 0.316 µM (inconclusive) at Cytochrome P450 2C19 (read-out: AC50) and 12.6 µM (inconclusive) on Cytochrome P450 3A4.
Broadly, the EC50 is the concentration giving half of the maximal effect. With `O=C(NCC(c1ccco1)N1CCCC1)c1ccccc1Sc1ccc(C(F)(F)F)cc1[N+](=O)[O-]` (stereo not drawn), the EC50 in data set [1] was 1.64 µM (active); in data set [2] it was > 60 µM (not active).
As for `O=C(N/N=C/c1ccc(Cl)c([N+](=O)[O-])c1)c1cc(-c2ccccc2)nc2ccccc12`, in data set [3], the AC50 was 2.08 µM (active).
With `Cc1ccc(-c2nc(C(=O)NCCCN3CCOCC3)cc3c2[nH]c2ccccc23)cc1`, the EC50 is 1.36 µM (active) in [1] and > 30 µM (not active) in data set [2].
In general, IC50 refers to the concentration that gives 50% inhibition. Regarding `O=c1[nH]c2ccccc2n2c(S)nnc12`, the IC50 in data set [4] is 109 µM (active).
On to `O=C(c1ccco1)N1CCN(C(=O)C2(S(=O)(=O)c3ccc(Cl)cc3)CC2)CC1`, for which the figures for the AC50 at Cytochrome P450 2C19 (read-out: AC50), at Cytochrome P450 3A4 and at Cytochrome P450 2C9 were 28.2 µM (inconclusive), 25.1 µM (inconclusive) and 17.8 µM (inconclusive), respectively.
`Cc1cccc(C(=O)N/N=C/c2ccc(OCC(=O)N3CCCCC3)cc2)c1`: at Cytochrome P450 2C9, the AC50 was 39.8 µM (inconclusive).
Take `CCOC(=O)c1c(O)nc(O)c(CC)c1C`: the AC50 on Cytochrome P450 2C19 (read-out: AC50) was 2.51 µM (inconclusive).
As to `N#Cc1ccccc1S(=O)(=O)N1CCN(C(=O)Cc2coc3cc(O)ccc23)CC1`, the half-maximal inhibitory concentration (IC50) in data set [4] was 32.6 µM (active).
For the molecule `CC(=O)Nc1ccc(Nc2ncnc3c2cnn3-c2ccccc2)cc1`, the AC50 on Cytochrome P450 3A4 was 35.5 µM (inconclusive).
Still for that read-out and setting: the result for `Cc1cc(N(CN2CCCC2=O)C(=O)c2ccc(F)cc2)no1` reads 3.98 µM (inconclusive).
On to `C/C(=N\NC(=O)c1cc2ccccc2cc1O)c1cc2ccccc2o1`, for which the EC50 is 1.77 µM (active) in [5] and 4.11 µM (active) with Streptococcus.
Consider `CCCC/C=C/C(NC(=O)c1ccc(C(F)(F)F)cc1)c1ccccc1` (stereo not drawn), for which, at Cytochrome P450 3A4, the AC50 is 10 µM (inconclusive).
Consider `CC(C)CC(=O)c1c(O)c(C=O)c(O)c2c1O[C@@]1(C)[C@@H](C2)C[C@H]2C[C@@H]1C2(C)C` [EUGLOBAL G1], for which the AC50 in data set [3] is 2.68 µM (active).
Regarding `O=C(Nc1ccccc1)N1CCCC2(CCN(C(=O)c3cnccn3)CC2)C1`, on Cytochrome P450 3A4, the AC50 was 25.1 µM (inconclusive).
On to `COc1ccc(Oc2ncc3ncc(=O)n(C4CC4)c3n2)cc1`, for which the values for the AC50 at Cytochrome P450 2C19 (read-out: AC50), at Cytochrome P450 3A4 and on Cytochrome P450 2C9 were 0.316 µM (inconclusive), 25.1 µM (inconclusive) and 25.1 µM (inconclusive), respectively.
With `Fc1ccccc1Cc1noc(CN2CCN(Cc3ccc4c(c3)OCO4)CC2)n1`, the concentration giving a half-maximal response (EC50) in data set [1] was 1.03 µM (active); in [2] it was > 60 µM (not active).
For `O=[N+]([O-])c1ccc(CNCCc2ccccc2)cc1`, the figures for the EC50 in data set [1] and in [2] were 0.528 µM (active) and > 60 µM (not active), respectively.
Regarding `Cc1ccc(CNC(=O)CCC2CCCN(Cc3cccc4ncccc34)C2)o1` (stereo not drawn), the EC50 is 0.193 µM (active) in data set [1] and > 60 µM (inconclusive) in [2].
On to `CN(C)CCCNCC(=O)c1c(-c2ccccc2)n(C)c2ccccc12`, for which the 50% inhibitory concentration (IC50) in data set [4] was 94.7 µM (active).
For `COc1ccc(NC(=O)N2CC3(CCN(S(=O)(=O)c4ccccc4)CC3)C2)cc1`, the AC50 at Cytochrome P450 3A4 was 15.8 µM (inconclusive).
Consider `O=C1CSC(=S)N1Nc1ccccc1`, for which the IC50 in [4] was 54 µM (active).
On to `CC(=O)Nc1ccc(S(=O)(=O)c2ccc([N+](=O)[O-])cc2)cc1`, for which the figures for the EC50 in data set [1] and in data set [2] were 0.661 µM (active) and > 60 µM (not active), respectively.
Regarding `COc1ccc(NC2CCCN(C(=O)c3ccc(CSC)o3)C2)cc1OC` (stereo not drawn), the 50% inhibitory concentration (IC50) in data set [4] was 109 µM (active).
With `COc1ccc(Cc2nnc(NC(=O)c3cccc([N+](=O)[O-])c3C)s2)cc1`, on Cytochrome P450 2C9, the half-maximal activity concentration (AC50) was 0.794 µM (inconclusive).
For `C/C(=C\C(=O)c1ccccc1)Nc1ccc(N2CCOCC2)cc1`, the EC50 is 6.78 µM (active) in data set [1] and > 60 µM (not active) in data set [2].
For the molecule `CCNc1ncc2nc(-c3ccccc3)c(=O)n(Cc3cccc(OC)c3)c2n1`, the AC50 on Cytochrome P450 2C19 (read-out: AC50) is 39.8 µM (inconclusive).
Take `O=C(O)/C(=C\c1ccncc1)c1cccc2ccccc12`: the AC50 on Cytochrome P450 2C9 is 3.16 µM (inconclusive).
On to `CCCCN1CSC(=S)N(Cc2ccccc2)C1`, for which the AC50 at Cytochrome P450 3A4 was 3.16 µM (inconclusive); on Cytochrome P450 2C9, 7.94 µM (inconclusive).
On to `CCCCNC(=O)C1C2C=CC3(CN(Cc4ccccc4Cl)C(=O)C13)O2` (stereo not drawn), for which the half-maximal activity concentration (AC50) at Cytochrome P450 2C9 is 17.8 µM (inconclusive).
With `CC(C)CC(=O)Nc1sc2c(c1C#N)CC(C)(C)NC2(C)C`, the concentration at half-maximal activity (AC50) at Cytochrome P450 2C19 (read-out: AC50) is 28.2 µM (inconclusive); on Cytochrome P450 3A4, 14.1 µM (inconclusive).
Consider `O=C(Nc1cccc2ccccc12)c1ccc([N+](=O)[O-])s1`, for which the 50% effective concentration (EC50) is 0.407 µM (active) in data set [1] and > 60 µM (not active) in data set [2].
Turning to `Cn1c(=O)[nH]c(N)c(Br)c1=O`, the 50% inhibitory concentration (IC50) in data set [4] is 84.3 µM (active).
`Cc1ccc(S(=O)(=O)CCCS(=O)(=O)c2ccc(C)cc2)cc1`: the AC50 at Cytochrome P450 2C9 was 5.01 µM (inconclusive).
As for `COC(=O)C(C)(C(=O)OC)c1ccc([N+](=O)[O-])cn1`, the AC50 on Cytochrome P450 2C19 (read-out: AC50) was 39.8 µM (inconclusive).
In the case of `Fc1ccc(N2CCN(c3ncnc4c3nnn4Cc3ccccc3Cl)CC2)cc1`, the EC50 in data set [1] was 2.46 µM (active); in data set [2] it was > 60 µM (inconclusive).
In the case of `CCNc1nc(NCC)nc(N/N=C/c2ccc(O)c(O)c2)n1`, in data set [4], the IC50 was 45.5 µM (active).
With `Cc1ccc(NC(=O)CCC(=O)c2ccc(F)cc2)cc1Cl`, the AC50 on Cytochrome P450 2C9 was 0.891 µM (inconclusive).
With `Brc1ccc(OCCn2ccnc2)cc1`, the EC50 in [1] was 3.15 µM (active); in data set [2] it was > 60 µM (not active).
As for `Cc1nc2c([nH]1)c(=O)n(C)c(=O)n2Cc1ccco1` [FURAFYLLINE], on Cytochrome P450 2C19, the AC50 result was “inconclusive”.
Turning to `NC(S)=Nc1cc2ccccc2c2ccccc12`, the AC50 on Cytochrome P450 2C9 is 0.282 µM (inconclusive).
With `c1cncc(CNc2nc(-c3ccc4c(c3)OCO4)nc3ccccc23)c1`, the AC50 at Cytochrome P450 2C9 is 0.398 µM (inconclusive).
With `C/N=c1\scc(-c2ccc(OC)cc2)n1/N=C(\C)c1cccnc1`, the EC50 in [1] is 1.79 µM (active); in data set [2], > 30 µM (not active).
As for `O=c1c2c(-c3ccc(Cl)cc3)csc2nc2n1CCC2`, the AC50 at Cytochrome P450 3A4 is 12.6 µM (inconclusive).
In the case of `CCOc1cc(/C=N/NC(=O)c2cc(C)[nH]n2)ccc1OC(=O)c1ccc([N+](=O)[O-])cc1`, the AC50 entry is “inconclusive” on Cytochrome P450 2C19, 22.4 µM (inconclusive) on Cytochrome P450 3A4 and 1.78 µM (inconclusive) on Cytochrome P450 2C9.
With `O=C1CN(c2nc(-c3ccccc3)c3cc(Br)ccc3n2)c2ccccc2N1`, the half-maximal activity concentration (AC50) at Cytochrome P450 3A4 was 7.08 µM (inconclusive).
Regarding `C/C(Cn1cnc([N+](=O)[O-])n1)=N/NC(=O)COc1c(Cl)cc(Cl)cc1Cl`, the EC50 in data set [1] was 0.143 µM (active); in data set [2], > 60 µM (not active).
`CC(=O)[C@@H]1CC[C@@H]2[C@@H]3C[C@H](C)C4=CC(=O)CC[C@@]4(C)[C@H]3[C@H](O)C[C@]21C`: the half-maximal activity concentration (AC50) on Cytochrome P450 3A4 is 7.94 µM (inconclusive).
As for `CCN(CC)c1ccc(NC(=O)COC(=O)Cc2ccsc2)cc1`, the IC50 in data set [4] was 38 µM (active).
Turning to `O=C(Nc1ccccc1C(=O)NCC1CCCO1)c1ccc(Cl)cc1Cl` (stereo not drawn), the concentration at half-maximal activity (AC50) on Cytochrome P450 3A4 is 4.47 µM (inconclusive).

Source of the values: ChEMBL document CHEMBL1201862, “PubChem BioAssay data set” (2004).
